“Also recorded” adds a separate entry of the source.
Columns and labels:
mouse primary T cells = assay: Annexin V/7-AAD apoptosis assay in TCR-engaged primary T cells; format: cell-based; details: up to 5 μM
Procedure: (§1) Supplementary F igure 1. SKI -O-592 and - 703 s p a re TCR- mediated signaling in T cells
(§2) (A) The stru cture of SKI-O-703. (B-D) Human per ipheral T cells sorted fro m human peripheral blood mononuclear cells (B and D) and mouse primary T cells sorted from spleen (C ) wer e stimulated with 5 µ g/ml anti- CD3 and 2 µ g/ml anti- CD28 m Abs in the presence or absence of inhibitors as indicated. Af ter one hour (B) and 24 h ours (C and D) of culture, cells we re assaye d […]
(§3) by immunoblotting (B), FA C S ( C), and ELISA (D). […]
(§4) of Zap70 and its downstream target PLCγ1. It’s effect on the suppression of IL-2 production […]
(§5) Supplementary F igure 2. Gating strategy for FACS of spleen cells
(§6) Erythrocyte-d epleted mo use spleen cells w ere assayed by FACS. Whole live cells were gated as shown: plasma cells (C D19lo/- CD138hi), GC B cells (CD19+ CD138- GL-7h i FA S hi), follicular B cells (CD19+ CD43- CD23hi CD21-), marginal zone B cells (CD19+ C D43- CD21hi CD23lo ), and Tfh cells (CD4+ CXCR5+ PD-1hi).
(§7) Supplementary Figure 3. Differential susceptibility of short-lived and long-lived plasma […]
(§8) When spleen cells from NZB/W mice were assay ed by FACS as in Fig. 5, they were stained intracellularly with anti- Ki-67 mAb to distinguish Ki-67+ dividing cells from Ki-67- non-dividing cells among t h e CD138hi population. […]

KOR = assay: Kinase assay (LANCE Ultra TR-FRET), KOR; format: biochemical
Procedure: (§9) Kinase assays were conducted in 384-well plates using LANCE ultra 66 time-resolved fluorescence resonance energy transfer (TR-FRET) methods, according to the manufacturer’s instructions (Perkin-Elmer). In brief, each kinase was pre-incubated with a serially diluted compound for 30 min, incubated with ULight poly-GT peptide substrate and ATP for up to 1 h. Thirty minutes after adding Eu-labeled anti-phosphopeptides Ab diluted in LANCE Detection Buffer, LANCE signals were measured with an EnVision multilabel reader (Perkin-Elmer).

FGFR2 = FGFR2 (Homo sapiens, UniProt P21802); assay: Kinase assay (LANCE Ultra TR-FRET), FGFR2; format: biochemical
Chain of FGFR2 (P21802 22-821, species assumed): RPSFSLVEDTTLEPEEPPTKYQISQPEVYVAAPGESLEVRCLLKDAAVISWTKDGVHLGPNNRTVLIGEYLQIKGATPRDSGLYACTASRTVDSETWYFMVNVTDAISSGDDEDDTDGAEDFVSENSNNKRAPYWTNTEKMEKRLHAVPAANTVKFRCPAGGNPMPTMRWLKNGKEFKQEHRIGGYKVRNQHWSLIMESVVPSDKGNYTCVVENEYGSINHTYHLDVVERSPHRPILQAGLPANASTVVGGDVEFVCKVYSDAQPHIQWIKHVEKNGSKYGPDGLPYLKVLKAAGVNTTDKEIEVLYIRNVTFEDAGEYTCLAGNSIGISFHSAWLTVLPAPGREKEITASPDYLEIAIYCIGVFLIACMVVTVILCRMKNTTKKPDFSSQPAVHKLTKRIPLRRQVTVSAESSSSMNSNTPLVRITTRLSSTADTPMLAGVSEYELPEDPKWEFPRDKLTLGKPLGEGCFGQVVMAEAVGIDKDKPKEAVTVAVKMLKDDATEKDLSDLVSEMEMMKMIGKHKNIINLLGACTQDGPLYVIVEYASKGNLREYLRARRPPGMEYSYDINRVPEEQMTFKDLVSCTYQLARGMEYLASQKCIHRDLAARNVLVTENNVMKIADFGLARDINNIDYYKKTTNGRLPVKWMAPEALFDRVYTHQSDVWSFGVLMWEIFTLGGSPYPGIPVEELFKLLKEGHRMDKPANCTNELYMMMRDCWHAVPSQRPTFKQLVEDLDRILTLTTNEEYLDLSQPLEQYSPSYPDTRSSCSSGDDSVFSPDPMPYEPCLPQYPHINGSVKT
Procedure: as §9

Pyk2 = Pyk2 (Homo sapiens, UniProt Q14289); assay: Kinase assay (LANCE Ultra TR-FRET), Pyk2; format: biochemical
Chain of Pyk2 (Q14289 whole entry, species assumed): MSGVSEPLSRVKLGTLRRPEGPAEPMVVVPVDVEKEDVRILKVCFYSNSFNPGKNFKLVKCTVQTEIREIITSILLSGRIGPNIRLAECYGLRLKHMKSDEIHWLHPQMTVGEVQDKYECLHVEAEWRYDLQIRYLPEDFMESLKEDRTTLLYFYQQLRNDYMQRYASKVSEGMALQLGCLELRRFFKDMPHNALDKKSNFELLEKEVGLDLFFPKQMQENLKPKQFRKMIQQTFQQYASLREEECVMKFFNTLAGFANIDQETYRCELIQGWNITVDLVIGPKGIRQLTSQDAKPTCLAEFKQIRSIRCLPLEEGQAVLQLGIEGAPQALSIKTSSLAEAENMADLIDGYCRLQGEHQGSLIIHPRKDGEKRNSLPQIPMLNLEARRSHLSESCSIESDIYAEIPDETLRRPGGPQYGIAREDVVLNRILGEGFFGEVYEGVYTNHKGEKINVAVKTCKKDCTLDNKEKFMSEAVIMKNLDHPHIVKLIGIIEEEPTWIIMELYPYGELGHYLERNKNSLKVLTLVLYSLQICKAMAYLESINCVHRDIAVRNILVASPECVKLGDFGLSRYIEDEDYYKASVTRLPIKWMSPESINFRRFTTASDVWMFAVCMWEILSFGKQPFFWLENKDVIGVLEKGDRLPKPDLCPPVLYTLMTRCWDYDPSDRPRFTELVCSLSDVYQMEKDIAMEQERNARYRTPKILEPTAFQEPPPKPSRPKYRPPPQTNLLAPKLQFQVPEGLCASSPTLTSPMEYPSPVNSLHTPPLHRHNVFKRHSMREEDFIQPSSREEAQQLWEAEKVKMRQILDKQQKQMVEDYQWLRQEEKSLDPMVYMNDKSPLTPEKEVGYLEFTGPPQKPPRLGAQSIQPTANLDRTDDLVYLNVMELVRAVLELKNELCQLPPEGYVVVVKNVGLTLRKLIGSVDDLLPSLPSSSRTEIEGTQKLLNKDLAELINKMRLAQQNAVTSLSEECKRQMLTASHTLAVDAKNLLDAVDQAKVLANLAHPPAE
Procedure: as §9

[1] = biological target: T1, phosphorylated Syk (p-Syk) in Ramos cells (Homo sapiens, UniProt P43405); assay: p-Syk ELISA in anti-IgM-stimulated Ramos cells (BCR signal); format: cell-based
T1 construct: endogenous in cells; host or cells: Ramos (ATCC), THP-1 (ATCC), human CD14+ monocytes (Lonza)
Procedure: (§10) THP-1 and Ramos cell lines and human CD14^+ monocytes were purchased from the American Type Culture Collection (ATCC) and Lonza, respectively. After treatment with Syk inhibitors for 1 h, THP-1 cells and monocytes were stimulated for 15 min with 100 μg/ml human IgG (Invitrogen), and Ramos cells were stimulated with 2 μg/ml anti-human IgM monoclonal Ab (mAb) (Bathyl). Cells were lysed in RIPA buffer containing 1% NP-40, 1% sodium deoxycholate, 0.1% SDS, and a mixture of protease and phosphatase inhibitors (Thermo Scientific). The lysates were assayed by standard immunoblotting methods and ELISA. Primary Abs used for immunoblotting were anti-phospho-Syk ([…]), anti-phospho-Vav (Y174), anti-phospho-PLCγ1 (Y1217) and anti-phospho-BLNK (Y96) Abs (all from Cell Signaling). ELISAs to detect phospho-Syk (Y525/526) were performed according to the manufacturer’s protocol (Cell Signaling).
(§11) Ramos cells (A), human primary monocytes (B), and THP cells (C) were pretreated with inhibitors at the indicated concentrations and stimulated with anti-human IgM (A) and human IgG (B and C). […] The relative intensities of protein phosphorylation levels were quantitated with reference to each lane of β-actin control bands. (D) Ramos cells, human primary monocytes, and THP cells were treated as in A–C for 24 h and levels of phosphorylated Syk (p-Syk) were measured by ELISA.

[2] = biological target: T2, phosphorylated Syk (p-Syk) in human CD14+ monocytes (Homo sapiens, UniProt P43405); assay: p-Syk ELISA in IgG-stimulated human CD14+ monocytes (FcγR signal); format: cell-based
T2 construct: endogenous in cells; host or cells: Ramos (ATCC), THP-1 (ATCC), human CD14+ monocytes (Lonza)
Procedure: as §10, §11

human peripheral T cells = assay: IL-2 production by activated T cells (ELISA); format: cell-based; details: fold lower than tofacitinib
Procedure: as §1, §2, §3, §4, §5, §6, §7, §8

Question: Which “Proportions of early and late apoptotic T cells” value (mouse primary T cells) does the source give for `CS(=O)(=O)O.CS(=O)(=O)O.Cc1nn(-c2ccnc(Nc3ccc4c(c3)c(C(=O)C3CC3)cn4C)n2)cc1CN1C[C@H](O)CO1` [SKI-O-703, (S)-cyclopropyl(5-((4-(4-((4-hydroxyisoxazolidin-2-yl)methyl)-3-methyl-1H-pyrazol-1-yl)pyrimidin-2-yl)amino)-1-methyl-1H-indol-3-yl)methanone dimesylate] here?
Answer: did not promote apoptotic cell death; also recorded: failed to increase

Question: Which results are given for `Cc1nn(-c2ccnc(Nc3ccc4c(c3)c(C(=O)C3CC3)cn4C)n2)cc1CN1C[C@H](O)CO1` [SKI-O-592]?
Answer: Ratio to Syk (KOR) (KOR; IC50 ratio to Syk): 111; IC50 (KOR; kinase activity, TR-FRET): 687 nM; Ratio to Syk (FGFR2) (FGFR2; IC50 ratio to Syk): >1623; IC50 (FGFR2; kinase activity, TR-FRET): > 10000 nM; Ratio to Syk (Pyk2) (Pyk2; IC50 ratio to Syk): 115; IC50 (Pyk2; kinase activity, TR-FRET): 709 nM; IC50 [1]: 282 nM; IC50 [2]: 191 nM; Potency on IL-2 production relative to tofacitinib (IC50) (human peripheral T cells): 25 fold

Source: paper PMC9993459, “A novel selective spleen tyrosine kinase inhibitor SKI-O-703 (cevidoplenib) ameliorates lupus nephritis and serum-induced arthritis in murine models” (Clinical and Experimental Immunology, 2022)
